Reference: US11964953B2, “Substituted aminothiazoles as DGKzeta inhibitors for immune activation” (Bayer Aktiengesellschaft, priority 2020, dated 2024)

molecular target: human DGKζ (Homo sapiens (Human), UniProt Q13574); experiment: Human DGKζ kinase activity inhibition assay (ADP-Glo); assay type: biochemical; conditions: in vitro human DGKζ kinase activity inhibition assay; read-out: IC50
In short: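 ADP-Glo luminescence, reflecting ADP produced, served as the readout of activity. Full-length human DGKζ, FLAG-tagged at the C-terminus and insect-cell expressed, was used; lipid substrate mix was sonicated with octyl-β-D-glucopyranoside in 50 mM MOPS pH 7.4.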

Chain of human DGKζ (Q13574 other isoform, or with tags, fused parts or gaps): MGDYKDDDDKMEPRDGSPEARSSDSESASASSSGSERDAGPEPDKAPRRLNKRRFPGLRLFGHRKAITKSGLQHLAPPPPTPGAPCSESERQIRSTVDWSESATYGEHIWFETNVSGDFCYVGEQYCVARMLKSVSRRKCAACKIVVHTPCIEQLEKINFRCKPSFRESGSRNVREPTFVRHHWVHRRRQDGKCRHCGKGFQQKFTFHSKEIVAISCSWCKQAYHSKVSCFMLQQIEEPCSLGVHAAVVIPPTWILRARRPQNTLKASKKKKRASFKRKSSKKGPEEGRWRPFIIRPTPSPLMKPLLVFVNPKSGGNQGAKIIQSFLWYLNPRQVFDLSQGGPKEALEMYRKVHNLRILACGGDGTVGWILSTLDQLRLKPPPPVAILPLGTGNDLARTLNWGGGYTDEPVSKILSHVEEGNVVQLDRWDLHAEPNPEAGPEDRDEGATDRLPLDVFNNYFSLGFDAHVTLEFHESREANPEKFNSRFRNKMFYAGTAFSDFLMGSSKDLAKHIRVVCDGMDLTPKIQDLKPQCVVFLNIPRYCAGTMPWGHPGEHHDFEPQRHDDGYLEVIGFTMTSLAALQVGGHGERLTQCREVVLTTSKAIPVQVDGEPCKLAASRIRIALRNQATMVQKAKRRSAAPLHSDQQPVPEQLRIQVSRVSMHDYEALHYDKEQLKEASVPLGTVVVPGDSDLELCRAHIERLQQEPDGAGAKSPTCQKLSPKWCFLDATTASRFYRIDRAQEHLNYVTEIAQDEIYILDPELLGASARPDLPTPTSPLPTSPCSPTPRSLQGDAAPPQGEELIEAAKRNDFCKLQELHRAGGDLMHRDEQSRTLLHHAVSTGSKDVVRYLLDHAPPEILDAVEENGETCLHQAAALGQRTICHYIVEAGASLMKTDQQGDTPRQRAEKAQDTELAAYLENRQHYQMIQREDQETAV

Row | IC50 [nM] | Compound
1 | 36 | CC(C(N)=O)N(c1ccc(OC(F)(F)F)nc1)c1nc(N)c(C(=O)c2ccc(OC(F)F)cc2)s1 (racemic) [Example 250, rac-2-[[4-amino-5-[4-(difluoromethoxy)benzoyl]thiazol-2-yl]-[6-(trifluoromethoxy)-3-pyridyl]amino]propanamide]
2 | 87 | CC(C(N)=O)N(c1ccc(OC(F)(F)F)nc1)c1nc(N)c(C(=O)c2ccc(OC(F)F)nc2)s1 (racemic) [Example 251, rac-2-[[4-amino-5-[6-(difluoromethoxy)pyridine-3-carbonyl]thiazol-2-yl]-[6-(trifluoromethoxy)-3-pyridyl]amino]propanamide]
3 | 106 | COc1ccc(C(=O)c2sc(N(c3ccc(OC(F)F)nc3)C(C)C(N)=O)nc2N)cc1 (racemic) [Example 252, rac-2-[[4-amino-5-(4-methoxybenzoyl)thiazol-2-yl]-[6-(difluoromethoxy)-3-pyridyl]amino]propanamide]
4 | 59 | CC(C(N)=O)N(c1ccc(OC(F)F)nc1)c1nc(N)c(C(=O)c2ccc(Cl)cc2)s1 (racemic) [Example 253, rac-2-[[4-amino-5-(4-chlorobenzoyl)thiazol-2-yl]-[6-(difluoromethoxy)-3-pyridyl]amino]propanamide]
5 | 32 | CC(C(N)=O)N(c1ccc(OC(F)F)nc1)c1nc(N)c(C(=O)c2ccc(OC(F)F)cc2)s1 (racemic) [Example 254, rac-2-[[4-amino-5-[4-(difluoromethoxy)benzoyl]thiazol-2-yl]-[6-(difluoromethoxy)-3-pyridyl]amino]propanamide]
6 | 76 | CC(C(N)=O)N(c1ccc(OC(F)F)nc1)c1nc(N)c(C(=O)c2ccc(OC(F)F)nc2)s1 (racemic) [Example 255, rac-2-[[4-amino-5-[6-(difluoromethoxy)pyridine-3-carbonyl]thiazol-2-yl]-[6-(difluoromethoxy)-3-pyridyl]amino]propanamide]
7 | 9 | CC(C(N)=O)N(c1ccc(F)cc1)c1nc(N)c(C(=O)c2ccc(NC(=O)OCc3ccccc3)nc2)s1 (racemic) [Example 256, rac-benzyl N-[5-[4-amino-2-(N-(2-amino-1-methyl-2-oxo-ethyl)-4-fluoro-anilino)thiazole-5-carbonyl]-2-pyridyl]carbamate]
8 | 19 | CCOC(=O)c1ccc(C(=O)c2sc(N(c3ccc(Cl)c(F)c3)C(C)C(N)=O)nc2N)cc1 (racemic) [Example 258, rac-Ethyl 4-[4-amino-2-(N-(2-amino-1-methyl-2-oxo-ethyl)-4-chloro-3-fluoro-anilino)thiazole-5-carbonyl]benzoate]
9 | 19 | CCOC(=O)C(C)(C)Oc1ccc(C(=O)c2sc(N(c3ccc(F)cc3)C(C)C(N)=O)nc2N)cc1 (racemic) [Example 259, Rac-Ethyl 2-[4-[4-amino-2-(N-(2-amino-1-methyl-2-oxo-ethyl)-4-fluoro-anilino)thiazole-5-carbonyl]phenoxy]-2-methyl-propanoate]
10 | 29 | CC(C(N)=O)N(c1ccc(F)cc1)c1nc(N)c(C(=O)c2ccc(C(=O)NC3CCCCC3)cc2)s1 (racemic) [Example 260, rac-4-[4-amino-2-(N-(2-amino-1-methyl-2-oxo-ethyl)-4-fluoro-anilino)thiazole-5-carbonyl]-N-cyclohexyl-benzamide]
11 | 90 | CC(C)NC(=O)c1ccc(C(=O)c2sc(N(c3ccc(F)cc3)C(C)C(N)=O)nc2N)cc1 (racemic) [Example 261, rac-4-[4-amino-2-(N-(2-amino-1-methyl-2-oxo-ethyl)-4-fluoro-anilino)thiazole-5-carbonyl]-N-isopropyl-benzamide]
12 | 6 | CC(C(N)=O)N(c1ccc(F)cc1)c1nc(N)c(C(=O)c2ccc(C(=O)NCc3ccccc3)cc2)s1 (racemic) [Example 262, rac-4-[4-amino-2-(N-(2-amino-1-methyl-2-oxo-ethyl)-4-fluoro-anilino)thiazole-5-carbonyl]-N-benzyl-benzamide]
